Data on nine compounds can be found in patent US12685726B2, “Sulfoximines as inhibitors of NaV1.8” (Gruenenthal GmbH, priority 2022, dated 2026).

The assay addresses T1, human NaV 1.8 (Homo sapiens, UniProt Q9Y5Y9).
T1 construct: expressed in transfected cells; host or cells: HEK (recombinant cell line)
The experiment in a line: Automated whole-cell patch clamp (Qube384) voltage-clamp recordings of sodium currents in HEK-NaV1.8 cell line. It is filed as cell-based. To be noted: read-out: Potency category (human NaV 1.8 IC50). As to the method: Electrophysiology: Voltage-Clamp Recordings
The following NaV1.8 recombinant cell line was used for recordings: HEK-NaV1.8 (NM_006514.1) with b3 (NM_018400.3).
Sodium currents were measured using the patch clamp technique in the whole-cell configuration using the Qube384 (Sophion A/S, Copenhagen, Denmark) automated voltage clamp platform. “Multi hole” plates were used for the cell line expressing NaV1.8 while “single hole” plates were used for the recombinant cell lines expressing the other subtypes. Appropriate filters (for minimum seal resistance and minimum current size) and series resistance compensation (for high quality sodium channel recordings) were applied. Data was collected at ambient room temperature or 19° C.
The recording extracellular solution contained (in mM): NaCl 145 mM, KCl 4 mM, CaCl2 2 mM, MgCl2 1 mM, HEPES 10 mM, Glucose 10 mM, pH 7.4 (NaOH). The intracellular recording solution contained (in mM): CsF 120 mM, CsCl 20 mM, NaCl 10 mM, EGTA 10 mM, HEPES 10 mM, pH 7.2 (CsOH). Currents were recorded at 25 kHz sampling frequency and filtered at 5 kHz. Series resistance compensation was applied at 65%.
Vehicle (VEH) is the control condition where cells are exposed to 0.3% DMSO without compound. All runs include VEH controls being exposed to the same voltage protocols to assess non-compound related phenomena such as run down and then used to isolate compound dependent effects on currents.
To check for state-dependent inhibition, the following voltage-sequence was applied every 20 seconds:
From a resting membrane potential of −120 mV, the first test pulse (P1; 20 ms to −10 mV) was applied to check for channels in the Resting State followed by a brief recovery (100 ms to −120 mV), then holding the membrane voltage to V1/2 (4 seconds at voltage to obtain half the channel at Rest and half Inactivated) with a subsequent second test pulse (P2; 20 ms to −10 mV) to check for channels in the Inactivated State, followed by another brief recovery (20 ms to −120 mV) and a final third test pulse (P3; 20 ms to −10 mV) to check for recovered channels.
To check for frequency-dependent inhibition, a 10 Hz protocol and a 20 Hz protocol were applied; namely,
From a resting membrane potential of −120 mV, 40-pulses (10 ms to −10 mV) was applied at 10 Hz (at 100 ms between pulses) and then at 20 Hz (at 50 ms between pulses).
Each parameter was recorded (P1, P2, P3, P40 from 10 Hz and P40 from 20 Hz) during a control period (lasting 5 minutes) when establishing the baseline and during compound period (lasting ~12 minutes) when test compound (or vehicle) was applied. For each parameter, the value at the end of the compound period was normalized to the vehicle baseline; as follows
To adjust for any variance in the Na^+ current signal during the compound period (owing to cumulative inactivation independent of compound or shifts in biophysics over time), a dedicated segment of the recording wells in each 384 plate were dedicated to having only vehicle exposure. These vehicle-only recordings were used to correct for any apparent “run-up” or “run-down” in the experiment.
The adjusted inhibition was calculated as follows: […]
Percent inhibition was determined and IC50 values were calculated using a 4 parameter logistic model within XLFit Software (IDBS, Boston MA): F
[formula] where A and B are the maximal and minimum inhibition respectively, C is the IC50 concentration and D is the (Hill) slope.
(In general: Patch clamp records ionic current or voltage across a cell membrane.)

T1 sequence (Q9Y5Y9 whole entry): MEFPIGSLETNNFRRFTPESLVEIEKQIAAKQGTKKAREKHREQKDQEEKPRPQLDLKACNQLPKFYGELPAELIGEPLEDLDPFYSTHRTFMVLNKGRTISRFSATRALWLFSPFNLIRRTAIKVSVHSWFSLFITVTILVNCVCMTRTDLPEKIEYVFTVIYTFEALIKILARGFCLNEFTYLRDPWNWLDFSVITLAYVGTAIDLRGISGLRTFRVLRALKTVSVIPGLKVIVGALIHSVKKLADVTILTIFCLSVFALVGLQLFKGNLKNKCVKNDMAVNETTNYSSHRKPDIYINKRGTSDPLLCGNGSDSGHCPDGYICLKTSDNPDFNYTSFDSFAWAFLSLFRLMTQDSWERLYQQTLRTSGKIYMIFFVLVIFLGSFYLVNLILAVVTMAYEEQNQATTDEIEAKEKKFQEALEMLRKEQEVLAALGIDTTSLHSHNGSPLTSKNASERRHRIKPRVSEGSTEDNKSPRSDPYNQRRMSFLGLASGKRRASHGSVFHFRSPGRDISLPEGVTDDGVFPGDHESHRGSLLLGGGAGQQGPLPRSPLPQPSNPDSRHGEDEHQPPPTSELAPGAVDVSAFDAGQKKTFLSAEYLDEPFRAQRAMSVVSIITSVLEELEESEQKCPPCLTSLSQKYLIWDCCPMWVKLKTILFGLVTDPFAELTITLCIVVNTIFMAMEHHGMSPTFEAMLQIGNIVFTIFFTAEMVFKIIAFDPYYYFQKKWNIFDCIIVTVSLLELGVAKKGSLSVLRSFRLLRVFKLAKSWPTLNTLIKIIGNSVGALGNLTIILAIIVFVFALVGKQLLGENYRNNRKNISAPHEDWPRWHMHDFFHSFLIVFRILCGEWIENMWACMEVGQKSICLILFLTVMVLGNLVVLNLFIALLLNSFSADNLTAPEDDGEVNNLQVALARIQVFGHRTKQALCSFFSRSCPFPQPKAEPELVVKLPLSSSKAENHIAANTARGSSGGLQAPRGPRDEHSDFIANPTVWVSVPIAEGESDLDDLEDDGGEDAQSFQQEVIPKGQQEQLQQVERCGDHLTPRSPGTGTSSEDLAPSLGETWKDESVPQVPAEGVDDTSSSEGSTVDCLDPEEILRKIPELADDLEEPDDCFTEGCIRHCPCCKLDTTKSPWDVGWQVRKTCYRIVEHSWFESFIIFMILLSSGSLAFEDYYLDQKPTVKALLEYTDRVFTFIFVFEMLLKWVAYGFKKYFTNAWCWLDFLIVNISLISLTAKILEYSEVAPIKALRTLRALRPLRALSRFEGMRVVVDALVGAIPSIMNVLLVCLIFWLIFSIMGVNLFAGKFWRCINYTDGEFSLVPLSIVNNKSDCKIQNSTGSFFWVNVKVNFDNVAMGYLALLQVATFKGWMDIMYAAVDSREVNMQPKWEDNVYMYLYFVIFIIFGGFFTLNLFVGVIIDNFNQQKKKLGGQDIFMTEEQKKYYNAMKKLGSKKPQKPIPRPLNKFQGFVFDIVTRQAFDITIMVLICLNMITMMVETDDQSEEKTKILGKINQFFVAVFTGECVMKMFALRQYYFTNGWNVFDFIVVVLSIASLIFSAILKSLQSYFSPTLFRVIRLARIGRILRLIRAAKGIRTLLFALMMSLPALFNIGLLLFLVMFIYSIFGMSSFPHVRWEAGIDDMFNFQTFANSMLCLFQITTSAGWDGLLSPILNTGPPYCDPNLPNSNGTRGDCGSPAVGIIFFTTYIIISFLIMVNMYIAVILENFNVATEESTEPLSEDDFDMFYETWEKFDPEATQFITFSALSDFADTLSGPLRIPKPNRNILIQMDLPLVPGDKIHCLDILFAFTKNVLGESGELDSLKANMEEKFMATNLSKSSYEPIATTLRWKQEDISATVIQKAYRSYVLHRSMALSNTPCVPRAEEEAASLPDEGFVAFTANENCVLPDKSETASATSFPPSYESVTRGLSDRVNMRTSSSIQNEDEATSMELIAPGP

What is called IC50 is the concentration that gives 50% inhibition. Regarding `Cc1cc(NC(=O)c2c(C(F)(F)F)c(C3CC3)nn2CC2(C)CC(F)(F)C2)cc(S(C)(=N)=O)n1` (single isomer, unassigned) [Example 50b, 3-cyclopropyl-1-((3,3-difluoro-1-methylcyclobutyl)methyl)-N-(2-methyl-6-(S-methylsulfonimidoyl)pyridin-4-yl)-4-(trifluoromethyl)-1H-pyrazole-5-carboxamide], the IC50 was ≤ 100 nM.
On to `CC1(Cn2nc(C3CCC3)c(C(F)(F)F)c2C(=O)Nc2ccnc(S(C)(=N)=O)c2)CC(F)(F)C1` (single isomer, unassigned) [Example 56a, 3-cyclobutyl-1-((3,3-difluoro-1-methylcyclobutyl)methyl)-N-(2-(S-methylsulfonimidoyl)pyridin-4-yl)-4-(trifluoromethyl)-1H-pyrazole-5-carboxamide], for which the IC50 was ≤ 100 nM.
Next, `CC1(Cn2nc(C3CCC3)c(C(F)(F)F)c2C(=O)Nc2ccnc(S(C)(=N)=O)c2)CC(F)(F)C1` (single isomer, unassigned) [Example 56b, 3-cyclobutyl-1-((3,3-difluoro-1-methylcyclobutyl)methyl)-N-(2-(S-methylsulfonimidoyl)pyridin-4-yl)-4-(trifluoromethyl)-1H-pyrazole-5-carboxamide]: ≤ 100 nM; `CC1(Cn2nc(C3CC(F)(F)C3)c(C(F)(F)F)c2C(=O)Nc2ccnc(S(C)(=N)=O)c2)CC(F)(F)C1` (single isomer, unassigned) [Example 57a, 1-((3,3-Difluoro-1-methylcyclobutyl)methyl)-3-(3,3-difluorocyclobutyl)-N-(2-(S-methylsulfonimidoyl)pyridin-4-yl)-4-(trifluoromethyl)-1H-pyrazole-5-carboxamide]: ≤ 100 nM; `CC1(Cn2nc(C3CC(F)(F)C3)c(C(F)(F)F)c2C(=O)Nc2ccnc(S(C)(=N)=O)c2)CC(F)(F)C1` (single isomer, unassigned) [Example 57b, 1-((3,3-Difluoro-1-methylcyclobutyl)methyl)-3-(3,3-difluorocyclobutyl)-N-(2-(S-methylsulfonimidoyl)pyridin-4-yl)-4-(trifluoromethyl)-1H-pyrazole-5-carboxamide]: ≤ 100 nM.
On to `CC1(Cn2nc(C34CC(C3)C4)c(C(F)(F)F)c2C(=O)Nc2ccnc(S(C)(=N)=O)c2)CC(F)(F)C1` (single isomer, unassigned) [Example 58a, 3-(Bicyclo[1.1.1]pentan-1-yl)-1-((3,3-difluoro-1-methylcyclobutyl)methyl)-N-(2-(S-methylsulfonimidoyl)pyridin-4-yl)-4-(trifluoromethyl)-1H-pyrazole-5-carboxamide], for which the half-inhibitory concentration (IC50) was ≤ 100 nM.
The same measure for `CC1(Cn2nc(C34CC(C3)C4)c(C(F)(F)F)c2C(=O)Nc2ccnc(S(C)(=N)=O)c2)CC(F)(F)C1` (single isomer, unassigned) [Example 58b, 3-(Bicyclo[1.1.1]pentan-1-yl)-1-((3,3-difluoro-1-methylcyclobutyl)methyl)-N-(2-(S-methylsulfonimidoyl)pyridin-4-yl)-4-(trifluoromethyl)-1H-pyrazole-5-carboxamide]: ≤ 100 nM.
Regarding `CC1(Cn2nc(C3CCCC3)c(C(F)(F)F)c2C(=O)Nc2ccnc(S(C)(=N)=O)c2)CC(F)(F)C1` (single isomer, unassigned) [Example 59a, 3-Cyclopentyl-1-((3,3-difluoro-1-methylcyclobutyl)methyl)-N-(2-(S-methylsulfonimidoyl)pyridin-4-yl)-4-(trifluoromethyl)-1H-pyrazole-5-carboxamide], the IC50 was ≤ 100 nM.
In the case of `CC1(Cn2nc(C3CCCC3)c(C(F)(F)F)c2C(=O)Nc2ccnc(S(C)(=N)=O)c2)CC(F)(F)C1` (single isomer, unassigned) [Example 59b, 3-Cyclopentyl-1-((3,3-difluoro-1-methylcyclobutyl)methyl)-N-(2-(S-methylsulfonimidoyl)pyridin-4-yl)-4-(trifluoromethyl)-1H-pyrazole-5-carboxamide], the IC50 is ≤ 100 nM.
